Laboratory results reported in US20240269215A1, “NUTRITIONAL COMPOSITION FOR MUSCLE MASS, STRENGTH AND FUNCTION” (N.V. Nutricia, priority 2021, published 2024).
Several values for one entry are separate records, joined by “and”; a condition that tells them apart may be missing. Identical values can stand only once.

Tests used:
[1] = system: Muscle Protein Synthesis (MPS); conditions: same experimental protocol, earlier work; cited from earlier work
[2] = Leucine bioavailability (plasma leucine from dry blood spots) in aged mice; assay type: in vivo
Protocol: Aged mice (animal model: see example 1) were fed with one of the 4 supplements at TO and after 10 minutes a droplet of blood from the tail was collected and stamped on a card. […] The results are plotted in FIG. 2A. Since feces was not collected, it was not possible to precisely calculate the N in- and output. […] Summarized, the amount of leucine present in the intact protein was known from the analyses of the pure protein sources (data sheets available). […] Since fasted mice also show a baseline level of plasma leucine, these values were then deducted from the obtained leucine plasma values (column D in table below). […] It was then calculated the contribution of the increase from the intact Leu (column E) and from the added free leucine (column F).

CC(C)C[C@H](N)C(=O)O [free leucine, L-leucine]
anabolic (MPS) response in aged mice, Dijk (2018) [1]: did not show an anabolic response
bioavailability factor of leucine (rise of plasma leucine per mg of leucine consumed) [2]: 17.4 mmol/L/mg and 17.3 mmol/L/mg
